# Experimental data reported in US8747881B2, “Intraluminal medical devices in combination with therapeutic agents” (Cordis Corporation, priority 2003, dated 2014).
# Tests used:
# [1] = Drug concentration in liquid formulations by liquid chromatography / HPLC; format: physicochemical
# Description: Table 8, shown below, summarizes the concentrations of the excipient, the co-solvents and the drug for four different liquid formulations in accordance with exemplary embodiments of the present invention.
# In another exemplary embodiment, the liquid formulation of sirolimus comprises water and ethanol as co-solvents and Vitamin E TPGS as the excipient. The liquid formulation was created utilizing the following process. Two hundred milligrams of sirolimus and two grams of ethanol were added to a pre-weighed twenty milliliter scintillation vial. The vial was vortexed and sonicated until the sirolimus was completely dissolved. Approximately six hundred milligrams of Vitamin E TPGS was then added to the solution of ethanol and sirolimus. The vial was vortexed again until a clear yellowish solution was obtained. Nitrogen gas was then used to reduce the amount of ethanol in the vial to approximately two hundred twenty-nine milligrams. In a separate vial, three hundred milligrams of Vitamin E TPGS was dissolved in eleven milliliters of purified water while undergoing vortexing. The Vitamin E TPGS and water solution was then added to the first vial containing the sirolimus, Vitamin E TPGS and ethanol. The first vial was then vortexed vigorously and continuously for three minutes. […] The foam gradually disappeared after sitting at room temperature. […]
# [2] = system: human coronary artery smooth muscle cells; experiment: Anti-proliferative activity in non-synchronized cultured cells stimulated with two percent fetal bovine serum; format: cell-based; details: for effect on the anti-proliferative activity of rapamycin when added: non-synchronized cells, added to cells treated with rapamycin
# Description: The multiple curves represent various concentrations of mycophenolic acid ranging from zero to one thousand nanomolar concentrations. […] This potentiation observed in cultured coronary artery smooth muscle cells preferably translates to an enhancement in anti-restenotic efficacy following vascular injury and a reduction in the required amount of either agent to achieve the desired anti-restenotic effect.
# FIG. 58 illustrates, in graphical format, the anti-proliferative activity of cladribine in non-synchronized cultured human coronary artery smooth muscle cells stimulated with two percent fetal bovine serum.
# The multiple curves represent various concentrations of cladribine ranging from zero to nine hundred nanomolar concentrations. […] As illustrated, the percent inhibition increases substantially as the dose of cladribine increases.
# [3] = system: human smooth muscle cells; experiment: Cladribine Example: PDGF-stimulated cell proliferation, smooth muscle cells; format: cell-based; details: from the IC50 values
# Description: To assess the ability of cladribine to prevent cell proliferation, human smooth muscle or endothelial cells (Clonetics, Walkersville, Md.) were seeded at a density of 2000 cells/cm^2 (approximately 3600 cells/well) into each well of 12-well plates and cultured with 1.5 ml of growth medium containing five percent fetal calf serum (FCS). After twenty-four hours, the growth medium was changed and fresh medium containing 10 ng/ml platelet-derived growth factor AB (PDGF AB; LIFE Technologies), as well as various concentrations of cladribine (0.001-10,000 nM) were added with triplicate wells. Medium was replaced with fresh cladribine-containing medium after three days. On day six, cells were detached by trypsinization to yield a cell suspension, lightly centrifuged to pellet and then counted manually using a Neubauer hemocytometer system. Cell viability was assessed by trypan blue exclusion.
# [4] = system: human coronary artery smooth muscle cells; experiment: Anti-proliferative activity in synchronized cultured cells stimulated with two percent fetal bovine serum; format: cell-based; details: for effect on the anti-proliferative activity of rapamycin when added: added to cells treated with rapamycin
# Description: (§1) The multiple curves represent various concentrations of topotecan ranging from zero to three hundred nanomolar concentrations.
# (§2) The multiple curves represent various concentrations of etoposide ranging from zero to eight hundred nanomolar concentrations.
# The multiple curves represent various concentrations of Panzem® ranging from zero to 100 micromolar concentrations.
# cell viability = experiment: Cell viability assay; format: cell-based
# Description: as §1, §2
# [5] = system: human coronary artery smooth muscle cell; experiment: MTS cytotoxicity assay; format: cell-based; details: concentrations up to 30,000.00 nanomolar, FIG. 69
# Description: Typically, a control is utilized to determine baseline toxicity.
# [6] = system: human coronary artery smooth muscle cell; experiment: In vitro cell culture study of coronary artery smooth muscle cell proliferation; format: cell-based
# Description: FIG. 51 is a graph of the inhibition of coronary artery smooth muscle cells by trichostatin A in a cell culture study.
# tumor cell lines = details: cited from earlier work
smiles,measurement,setting,value
CO[C@H]1C[C@@H]2CC[C@@H](C)[C@@](O)(O2)C(=O)C(=O)N2CCCC[C@H]2C(=O)O[C@H]([C@H](C)C[C@@H]2CC[C@@H](OC(=O)C(C)(CO)CO)[C@H](OC)C2)CC(=O)[C@H](C)/C=C(\C)[C@@H](O)[C@@H](OC)C(=O)[C@H](C)C[C@H](C)/C=C/C=C/C=C/1C [CCI-779],concentration in the final solution (HPLC assay),"[1]; ethanol (less than two percent), Vitamin E TPGS and water",15000 µg/mL
"Nc1nc(Cl)nc2c1ncn2[C@H]1C[C@H](O)[C@@H](CO)O1 [Cladribine, 2-chlorodeoxyadenosine]",effect on the anti-proliferative activity of rapamycin when added,[2],increases the percent inhibition of rapamycin alone
same,inhibition of human coronary artery smooth muscle cell proliferation,"[2]; non-synchronized, two percent fetal bovine serum, FIG. 58",completely inhibits
same,potency as inhibitor of smooth muscle cells relative to endothelial cells,[3],approximately twice
"COc1cc([C@@H]2c3cc4c(cc3[C@@H](O[C@@H]3O[C@@H]5CO[C@@H](C)O[C@H]5[C@H](O)[C@H]3O)[C@H]3COC(=O)[C@H]23)OCO4)cc(OC)c1O [Etoposide, etoposide]",effect on the anti-proliferative activity of rapamycin when added,[4],increases the percent inhibition of rapamycin alone
same,cytotoxicity,cell viability; concentrations up to ten micromolar,non-cytotoxic
"COc1cc2c(cc1O)CC[C@@H]1[C@@H]2CC[C@]2(C)[C@@H](O)CC[C@@H]12 [Panzem®, 2-methoxyestradiol]",inhibition of human coronary artery smooth muscle cell proliferation in vitro,[4]; FIG. 66,extremely effective inhibitor
same,effect on the anti-proliferative activity of rapamycin when added,[4],increases the percent of inhibition of rapamycin alone
same,cell survival (MTS assay),[5],do not reduce human coronary artery smooth muscle cell survival
"CO[C@H]1C[C@@H]2CC[C@@H](C)[C@@](O)(O2)C(=O)C(=O)N2CCCC[C@H]2C(=O)O[C@H]([C@H](C)C[C@@H]2CC[C@@H](O)[C@H](OC)C2)CC(=O)[C@H](C)/C=C(\C)[C@@H](O)[C@@H](OC)C(=O)[C@H](C)C[C@H](C)/C=C/C=C/C=C/1C [Rapamycin, rapamycin]",concentration relative to the solubility of sirolimus in water,"[1]; 4 mg/ml formulation with PEG 200, ethanol and water",four hundred to about one thousand
"CC[C@@]1(O)C(=O)OCc2c1cc1n(c2=O)Cc2cc3c(CN(C)C)c(O)ccc3nc2-1 [Topotecan, topotecan]",effect on the anti-proliferative activity of rapamycin when added,[4],increases the percent inhibition of rapamycin alone
same,cytotoxicity,cell viability; concentrations up to one micromolar,non-cytotoxic
COc1c(C)c2c(c(O)c1C/C=C(\C)CCC(=O)O)C(=O)OC2 [mycophenolic acid],effect on the anti-proliferative activity of rapamycin when added,[2],potentiates the anti-proliferative activity of rapamycin
CC(/C=C/C(=O)NO)=C\[C@@H](C)C(=O)c1ccc(N(C)C)cc1 [trichostatin A],IC50,"[6]; human coronary artery smooth muscle cell proliferation, read-out: anti-proliferative IC50",~6 nM
same,inhibition of human coronary artery smooth muscle cell proliferation,[6]; in vitro cell culture,completely inhibit
same,anti-proliferative IC50,tumor cell lines,low nM range
